Laboratory results reported in patent publication EP0639376A1, “Liquid composition containing amide derivative” (TERUMO KABUSHIKI KAISHA, priority 1993, dated 1995).

Assays:
Assay type in all cases: physicochemical
[1] = Test for solubility: dissolution of the compound observed with the naked eye; conditions: Table 5; 0.05 g compound, 1.0 g HCO-60, pH buffer
Method: To test the solubility of the above-mentioned compound, various experiments were carried out under different conditions in the presence or absence of a nonionic surfactant.
Formulation No. 1 was prepared by heating and dissolving 0.05 g of Compound (III) and 0.5 g of polyoxyethylene-hardened castor oil (HCO-60) in a beaker at about 60°C followed by gradually adding thereto lactic acid/sodium lactate buffer (pH 5.0) as the pH buffer while stirring to dissolve them.

[2] = Test for stability: percentage of compound remaining after storage at 60°C, measured by liquid chromatography; conditions: for remaining at 480 h: buffer with hco-60, Table 5, 0.05 g compound, 1.0 g HCO-60, pH buffer, 60°C, 20 days, read-out: Stability (as percentage of compound remained after stored at 60°C for 20 days)
Method: The difference in the stability of Compound (III) was tested, depending on the solubilizer added thereto. The stability was represented by the percentage (%) of the amount of Compound (III) remained after storage. Precisely, each sample formulation shown in Table 2 below was put in a glass tube with a screw cap and stored for 10 days and 20 days both at 60°C, whereupon the percentage of the amount of the compound remained after the storage was measured by liquid chromatography. From the value thus measured, the stability of the compound was evaluated.
Next, to examine the influence of the concentration of the solubilizer on the stability of Compound (III), experiments were carried out where the concentration of the nonionic surfactant to be added was stepwise increased while the concentration of Compound (III) was kept constant. Precisely, each sample formulation shown in Table 3 below was stored for 10 days and 20 days both at 60°C, whereupon the percentage (%) of the amount of Compound (III) remained after the storage was measured by liquid chromatography. On the basis of the thus-measured percentage, the stability of the compound was evaluated.

[3] = Mean particle size of formed micelles by light-scattering photometry; design: key: - : No micelle detected; conditions: Compound (III) 0.005 W/V %
Excerpt: It was confirmed that, when the concentration of Compound (III) was 0.005 W/V % and when the concentration of HCO-60 was 0.10 W/V % or more, micelles having a mean particle size of from 16 to 20 nm were formed.

[4] = Solubility of the compound in solvents (description of the substance)

In the case of `CCOC(=O)Oc1ccc(/C=C/C(=O)NCCN2CCC(OC(c3ccccc3)c3ccccc3)CC2)cc1OC(=O)OCC` [(VI)], the Solubility [1] is reported as “Dissolved clear” and the remaining at 480 h [2] is reported as 90.9%.

In the case of `CCOC(=O)Oc1ccc(/C=C/C=C/C(=O)NCCN2CCC(OC(c3ccccc3)c3ccccc3)CC2)cc1OC(=O)OCC` [(VII)], the Solubility [1] is reported as “Dissolved clear” and the remaining at 480 h [2] is reported as 92.6%.

With `CCOC(=O)Oc1ccc(/C=C/C=C/C(=O)NCCN2CCC(OC(c3ccccc3)c3ccccc3)CC2)cc1OC` [Compound (III), 1-[{5'-(3''-methoxy-4''-ethoxycarbonyloxyphenyl)-2',4'-pentadienoyl}aminoethyl]-4-diphenylmethoxypiperidine] the “Mean Particle Size” value ([3]; HCO-60 0.05 W/V %) was “-”, the “Mean Particle Size” value ([3]; HCO-60 0.10 W/V %) was 16.2 +/- 3.7 nm and the “Mean Particle Size” value ([3]; HCO-60 0.25 W/V %) was 19.6 +/- 4.3 nm. For the same compound, the “Mean Particle Size” value ([3]; HCO-60 0.50 W/V %) was 18.3 +/- 4.5 nm, the “Mean Particle Size” value ([3]; HCO-60 1.00 W/V %) was 18.8 +/- 4.2 nm and the solubility in acetone [4] was “easily soluble”. For the same compound, the solubility in acetonitrile [4] was “soluble in acetonitrile to some degree”, the solubility in dichloroethane [4] was “easily soluble” and the solubility in ethanol [4] was “hardly soluble”. The solubility in water [4] was “almost insoluble” and the “stabilization of Compound (III)” value ([2]; result in words, from Table 3, HCO-60 0.10 W/V % or more) was “almost satisfactorily stabilized”.

In the case of `CCOC(=O)Oc1ccc(/C=C/C(=O)NCCN2CCC(OC(c3ccccc3)c3ccccc3)CC2)cc1OC` [Compound (IV)], the Solubility [1] is reported as “Dissolved clear” and the remaining at 480 h [2] is reported as 91.2%.

In the case of `CCOC(=O)Oc1ccc(/C=C/C=C/C(=O)NCCCN2CCN(C(c3ccccc3)c3ccccc3)CC2)cc1OC` [Compound (V)], the Solubility [1] is reported as “Dissolved clear” and the remaining at 480 h [2] is reported as 92.1%.
